Inhibition data for 24 compounds are collected here from patent US10435399B2, “HDAC6 inhibitory heterocyclic compound” (TAKEDA PHARMACEUTICAL COMPANY LIMITED, priority 2017, dated 2019).

The test concerns the target T1, HDAC6 enzyme (Homo sapiens, UniProt Q9UBN7).
T1 construct: transducing full length HDAC6 gene into Sf-9 insect cells; GST; purchased SignalChem; host or cells: Sf-9 insect cells
T1 sequence (Q9UBN7 1-1215): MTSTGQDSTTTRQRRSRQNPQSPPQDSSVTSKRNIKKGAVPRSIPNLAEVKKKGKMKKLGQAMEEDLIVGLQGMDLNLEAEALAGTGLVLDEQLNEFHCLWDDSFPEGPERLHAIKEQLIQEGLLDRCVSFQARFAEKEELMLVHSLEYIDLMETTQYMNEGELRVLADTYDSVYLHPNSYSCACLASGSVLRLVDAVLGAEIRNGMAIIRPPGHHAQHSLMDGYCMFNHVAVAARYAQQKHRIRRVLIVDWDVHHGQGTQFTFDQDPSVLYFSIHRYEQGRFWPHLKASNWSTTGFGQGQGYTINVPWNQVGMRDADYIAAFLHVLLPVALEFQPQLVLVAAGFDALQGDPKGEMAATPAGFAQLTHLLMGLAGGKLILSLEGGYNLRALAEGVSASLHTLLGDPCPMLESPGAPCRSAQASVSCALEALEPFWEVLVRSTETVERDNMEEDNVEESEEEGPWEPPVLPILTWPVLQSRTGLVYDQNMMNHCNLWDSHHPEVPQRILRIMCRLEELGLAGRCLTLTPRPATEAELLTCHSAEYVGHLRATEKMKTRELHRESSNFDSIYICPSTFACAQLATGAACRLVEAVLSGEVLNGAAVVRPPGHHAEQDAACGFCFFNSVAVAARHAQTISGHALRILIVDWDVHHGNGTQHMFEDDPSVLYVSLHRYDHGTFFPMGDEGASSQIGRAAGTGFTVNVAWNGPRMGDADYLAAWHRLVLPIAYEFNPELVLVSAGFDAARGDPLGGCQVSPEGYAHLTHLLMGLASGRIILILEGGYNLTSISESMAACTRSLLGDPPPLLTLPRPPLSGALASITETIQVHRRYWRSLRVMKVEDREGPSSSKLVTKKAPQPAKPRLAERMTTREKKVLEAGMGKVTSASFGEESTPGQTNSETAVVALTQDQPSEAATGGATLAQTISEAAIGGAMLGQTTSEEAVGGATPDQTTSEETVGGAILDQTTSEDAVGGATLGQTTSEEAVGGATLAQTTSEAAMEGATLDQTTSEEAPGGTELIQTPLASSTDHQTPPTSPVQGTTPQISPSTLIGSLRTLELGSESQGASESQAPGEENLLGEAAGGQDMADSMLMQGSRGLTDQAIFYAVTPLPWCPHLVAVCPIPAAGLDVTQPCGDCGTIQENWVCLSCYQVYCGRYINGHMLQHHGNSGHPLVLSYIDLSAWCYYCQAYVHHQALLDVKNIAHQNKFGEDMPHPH
The test can be described thus: HDAC6 enzyme inhibitory activity (HDAC-Glo I/II Assay kit). It is filed as biochemical. Conditions: 10 μM; wells without enzyme = 100% inhibition; read-out: HDAC6 inhibitory rate (%) (10 μM). In outline:
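Inhibition is calculated as relative activity, taking luminescence in enzyme-free wells as complete inhibition. The enzyme, full-length and GST-purified after Sf-9 expression, was exposed to compound for 60 min at room temperature before a 20 min HDAC-Glo reaction.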
In the case of `CCCC(=O)N[C@@H]1CCCC[C@H]1N1Cc2ncc(-c3nnc(C(F)F)o3)cc2C1=O` [Example 462, N-((1R,2R)-2-(3-(5-(difluoro-methyl)-1,3,4-oxadiazol-2-yl)-5-oxo-5,7-dihydro-6H-pyrrolo[3,4-b]pyridin-6-yl)cyclohexyl) butanamide], the inhibition at 10 µM came out at 100%.
The figure for `O=C(N[C@@H]1CCCC[C@H]1N1Cc2ncc(-c3nnc(C(F)F)o3)cc2C1=O)C1CC1` [Example 463, N-((1R,2R)-2-(3-(5-(difluoro-methyl)-1,3,4-oxadiazol-2-yl)-5-oxo-5,7-dihydro-6H-pyrrolo[3,4-b]pyridin-6-yl)cyclohexyl) cyclopropane-carboxamide] is 101%; for `O=C(N[C@@H]1CCCC[C@H]1N1Cc2ncc(-c3nnc(C(F)F)o3)cc2C1=O)C1CCC1` [Example 464, N-((1R,2R)-2-(3-(5-(difluoro-methyl)-1,3,4-oxadiazol-2-yl)-5-oxo-5,7-dihydro-6H-pyrrolo[3,4-b]pyridin-6-yl)cyclohexyl) cyclobutane-carboxamide] it is 101%; for `O=C(N[C@@H]1CCCC[C@H]1N1Cc2ncc(-c3nnc(C(F)F)o3)cc2C1=O)c1ccccc1` [Example 465, N-((1R,2R)-2-(3-(5-(difluoro-methyl)-1,3,4-oxadiazol-2-yl)-5-oxo-5,7-dihydro-6H-pyrrolo[3,4-b]pyridin-6-yl)cyclohexyl) benzamide] it is 99%.
Next, `O=C(Cc1ccccc1)N[C@@H]1CCCC[C@H]1N1Cc2ncc(-c3nnc(C(F)F)o3)cc2C1=O` [Example 466, N-((1R,2R)-2-(3-(5-(difluoro-methyl)-1,3,4-oxadiazol-2-yl)-5-oxo-5,7-dihydro-6H-pyrrolo[3,4-b]pyridin-6-yl)cyclohexyl)-2-phenyl-acetamide]: 100%; `O=C1c2cc(-c3nnc(C(F)F)o3)ccc2CN1c1ccc(F)cc1-c1ccn[nH]1` [Example 467, 6-(5-(difluoro-methyl)-1,3,4-oxadiazol-2-yl)-2-(4-fluoro-2-(1H-pyrazol-5-yl)phenyl) isoindolin-1-one]: 101%; `Cn1cc(-c2cc(F)cc(C#N)c2)c(N2Cc3ccc(-c4nnc(C(F)F)o4)cc3C2=O)n1` [Example 468, 3-(3-(6-(5-(difluoro-methyl)-1,3,4-oxadiazol-2-yl)-1-oxo-1,3-dihydro-2H-isoindol-2-yl)-1-methyl-1H-pyrazol-4-yl)-5-fluoro-benzonitrile]: 100%.
As for `O=C1c2cc(-c3nnc(C(F)F)o3)ccc2CN1[C@@H]1CCC(F)(F)C[C@H]1NC(=O)C(F)(F)C(F)(F)F` [Example 469, N-((1R,2R)-2-(6-(5-(difluoromethyl)-1,3,4-oxadiazol-2-yl)-1-oxo-1,3-dihydro-2H-isoindol-2-yl)-5,5-difluorocyclohexyl)-2,2,3,3,3-pentafluoropropanamide], the inhibition at 10 µM was 99%.
Next, `CC(F)(F)C(=O)N[C@@H]1CC(F)(F)CC[C@H]1N1Cc2ccc(-c3nnc(C(F)F)o3)cc2C1=O` [Example 470, N-((1R,2R)-2-(6-(5-(difluoromethyl)-1,3,4-oxadiazol-2-yl)-1-oxo-1,3-dihydro-2H-isoindol-2-yl)-5,5-difluorocyclohexyl)-2,2-difluoropropanamide]: 101%; `Cn1cc(-c2cc(F)nc(F)c2)c(N2Cc3ccc(-c4nnc(C(F)F)o4)cc3C2=O)n1` [Example 471, 6-(5-(difluoro-methyl)-1,3,4-oxadiazol-2-yl)-2-(4-(2,6-difluoro-pyridin-4-yl)-1-methyl-1H-pyrazol-3-yl) isoindolin-1-one]: 100%.
Take `O=C1c2cc(-c3nnc(C(F)F)o3)ccc2CN1c1ccnn1-c1cccc(Cl)c1` [Example 472, 2-(1-(3-chloro-phenyl)-1H-pyrazol-5-yl)-6-(5-(difluoro-methyl)-1,3,4-oxadiazol-2-yl) isoindolin-1-one]: the inhibition at 10 µM was found to be 100%.
In the case of `O=C1c2cc(-c3nnc(C(F)F)o3)ccc2CN1c1ccnn1-c1ccc(F)cc1` [Example 473, 6-(5-(difluoro-methyl)-1,3,4-oxadiazol-2-yl)-2-(1-(4-fluoro-phenyl)-1H-pyrazol-5-yl) isoindolin-1-one], the inhibition at 10 µM was 99%.
The figure for `Cn1cc(C2=CCC(F)(F)CC2)c(N2Cc3ccc(-c4nnc(C(F)F)o4)cc3C2=O)n1` [Example 474, 2-(4-(4,4-difluorocyclo-hex-1-en-1-yl)-1-methyl-1H-pyrazol-3-yl)-6-(5-(difluoro-methyl)-1,3,4-oxadiazol-2-yl) isoindolin-1-one] is 99%.
Next, `C[C@@H](c1ccccc1)N1Cc2ncc(-c3nnc(C(F)F)o3)cc2C1=O` [Example 475, 3-(5-(difluoro-methyl)-1,3,4-oxadiazol-2-yl)-6-((1S)-1-phenylethyl)-6,7-dihydro-5H-pyrrolo [3,4-b]pyridin-5-one]: 100%; `C[C@H](c1ccccc1)N1Cc2ncc(-c3nnc(C(F)F)o3)cc2C1=O` [Example 476, 3-(5-(difluoro-methyl)-1,3,4-oxadiazol-2-yl)-6-((1R)-1-phenylethyl)-6,7-dihydro-5H-pyrrolo [3,4-b]pyridin-5-one]: 100%; `COc1ccc(N2Cc3ccc(-c4nnc(C(F)F)o4)cc3C2=O)c(Br)c1` [Example 477, 2-(2-bromo-4-methoxy-phenyl)-6-(5-(difluoro-methyl)-1,3,4-oxadiazol-2-yl) isoindolin-1-one]: 95%.
Next, `O=C1c2cc(-c3nnc(C(F)F)o3)cnc2CN1Cc1ccccc1OCC(F)F` [Example 478, 6-(2-(2,2-difluoroethoxy)benzyl)-3-(5-(difluoro-methyl)-1,3,4-oxadiazol-2-yl)-6,7-dihydro-5H-pyrrolo [3,4-b]pyridin-5-one]: 100%.
Consider `O=C1c2cc(-c3nnc(C(F)F)o3)cnc2CN1Cc1cccc(-c2cnn(C(F)F)c2)c1` [Example 479, 3-(5-(difluoro-methyl)-1,3,4-oxadiazol-2-yl)-6-(3-(1-(difluoro-methyl)-1H-pyrazol-4-yl)benzyl)-6,7-dihydro-5H-pyrrolo[3,4-b] pyridin-5-one], for which the inhibition at 10 µM turned out to be 100%.
The figure for `Cn1cc(C2CCC(F)(F)CC2)c(N2Cc3ccc(-c4nnc(C(F)F)o4)cc3C2=O)n1` [Example 480, 2-(4-(4,4-difluorocyclo-hexyl)-1-methyl-1H-pyrazol-3-yl)-6-(5-(difluoro-methyl)-1,3,4-oxadiazol-2-yl) isoindolin-1-one] is 101%; for `Cn1cc(-c2cccc3ccnn23)c(N2Cc3ccc(-c4nnc(C(F)F)o4)cc3C2=O)n1` [Example 481, 6-(5-(difluoro-methyl)-1,3,4-oxadiazol-2-yl)-2-(1-methyl-4-(pyrazolo[1,5-a]pyridin-7-yl)-1H-pyrazol-3-yl)isoindolin-1-one] it is 98%; for `O=C1c2cc(-c3nnc(C(F)F)o3)ccc2CN1c1ccc(F)cc1-n1cc(Br)cn1` [Example 482, 2-(2-(4-bromo-1H-pyrazol-1-yl)-4-fluoro-phenyl)-6-(5-(difluoro-methyl)-1,3,4-oxadiazol-2-yl) isoindolin-1-one] it is 100%.
Next, `O=C1c2cc(-c3nnc(C(F)F)o3)ccc2CN1c1ccc(OC(F)(F)F)cc1Br` [Example 483, 2-(2-bromo-4-(trifluoro-methoxy)phenyl)-6-(5-(difluoro-methyl)-1,3,4-oxadiazol-2-yl) isoindolin-1-one]: 91%; `COc1ccc(N2Cc3ccc(-c4nnc(C(F)F)o4)cc3C2=O)c(-c2ccccc2)c1` [Example 484, 6-(5-(difluoro-methyl)-1,3,4-oxadiazol-2-yl)-2-(5-methoxy-biphenyl-2-yl) isoindolin-1-one]: 100%; `O=C1c2cc(-c3nnc(C(F)F)o3)ccc2CN1c1ccc(OC(F)(F)F)cc1-c1ccccc1` [Example 485, 6-(5-(difluoro-methyl)-1,3,4-oxadiazol-2-yl)-2-(5-(trifluoro-methoxy)biphenyl-2-yl) isoindolin-1-one]: 100%.
